# From the supplement of paper PMC10307832
# Compound: COc1cc(-c2nn([C@H]3CC[C@H](N4CCN(C(C)=O)CC4)CC3)c3ncnc(N)c23)ccc1NC(=O)c1cc2ccccc2n1C + Nc1nc2[nH]cc(CCc3ccc(C(=O)N[C@@H](CCC(=O)O)C(=O)O)cc3)c2c(=O)[nH]1 [Pemetrexed] (partner 0.2 µM)
# Experiment: relative viability (nuclei count vs DMSO), 5 days (fraction); higher = more cells survive
# Settings: first compound 1.28 µM
# Procedure, shortened: (§1)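 Each reported value is a median over duplicate plates. It expresses relative viability: treated-well nuclei count divided by vehicle-well nuclei count. Lung cancer cell lines in 1536-well plates were dosed by pin tool a day after seeding, alone with one drug or with a fixed anchor-drug dose plus five library-drug doses (not always all listed) in √10 steps, and nuclei were counted after 5 days.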
row,Cell Line,relative viability
1,NCI-H596,0.431
2,LK-2,0.133
3,NCI-H2087,0.707
4,NCI-H1648,0.646
5,SK-MES-1,0.755
6,H3255,0.489
7,COR-L23,0.204
8,COR-L 105,0.836
9,HCC-44,0.687
10,NCI-H522,0.822
11,SW 900,0.373
12,CAL-12T,1.12
13,NCI-H2228,0.322
14,NCI-H1792,0.729
15,NCI-H1563,0.582

# Compound: CO[C@@H]1[C@H](N(C)C(=O)c2ccccc2)C[C@H]2O[C@]1(C)n1c3ccccc3c3c4c(c5c6ccccc6n2c5c31)C(=O)NC4 [Midostaurin] + O=C(c1cc(Cc2n[nH]c(=O)c3ccccc23)ccc1F)N1CCN(C(=O)C2CC2)CC1 [Olaparib] (partner 8 µM)
# Experiment: as above
# Settings: first compound 0.01 µM
# Procedure, shortened: as §1
row,Cell Line,relative viability
1,NCI-H2342,0.419
2,NCI-H727,0.659
3,NCI-H1650,0.945
4,EBC-1,0.719
5,NCI-H1703,0.507
6,NCI-H1993,1.08
7,SW 1573,0.503
8,NCI-H838,0.748
9,LCLC-103H,0.746
10,NCI-H520,0.32
11,NCI-H2126,0.813
12,EMC-BAC-2,0.459
13,NCI-H2085,0.76
14,Calu-6,0.421
15,HCC-366,0.336
16,NCI-H1666,0.709
17,NCI-H596,0.77

row,Cell Line,relative viability
1,LK-2,0.686
2,NCI-H2087,0.585
3,NCI-H1648,1.08
4,SK-MES-1,0.634
5,H3255,0.515
6,COR-L23,0.386
7,COR-L 105,0.829
8,IA-LM,0.746
9,HCC-44,0.999
10,A549,0.256
11,NCI-H522,0.546
12,SW 900,0.826
13,NCI-H1299,0.919
14,CAL-12T,0.76
15,NCI-H2228,0.618
16,NCI-H1792,0.383
17,ABC-1,0.691

# Same assay, conditions: first compound 0.03162 µM
row,Cell Line,relative viability
1,NCI-H2342,0.394
2,NCI-H727,0.62
3,NCI-H1650,0.793
4,EBC-1,0.589
5,NCI-H1703,0.421
6,NCI-H1993,0.791
7,SW 1573,0.547
8,NCI-H838,0.839
9,LCLC-103H,0.813
10,NCI-H520,0.318
11,NCI-H2126,0.901
12,EMC-BAC-2,0.497
13,NCI-H2085,0.708
14,Calu-6,0.638
15,HCC-366,0.358
16,NCI-H1666,0.708
17,NCI-H596,0.691

row,Cell Line,relative viability
1,LK-2,0.612
2,NCI-H2087,0.539
3,SK-MES-1,0.595
4,H3255,0.538
5,COR-L23,0.269
6,COR-L 105,0.626
7,IA-LM,0.653
8,HCC-44,0.957
9,A549,0.39
10,NCI-H522,0.748
11,SW 900,1.08
12,NCI-H1299,0.942
13,CAL-12T,0.585
14,NCI-H2228,0.588
15,NCI-H1792,0.308
16,ABC-1,1.31

# Same assay, conditions: first compound 0.1 µM
row,Cell Line,relative viability
1,NCI-H2342,0.422
2,NCI-H727,0.628
3,NCI-H1650,0.727
4,EBC-1,0.673
5,NCI-H1703,0.298
6,NCI-H1993,1.01
7,SW 1573,0.403
8,NCI-H838,0.511
9,LCLC-103H,0.717
10,NCI-H520,0.266
11,NCI-H2126,0.853
12,EMC-BAC-2,0.411
13,NCI-H2085,0.834
14,Calu-6,0.509
15,HCC-366,0.302
16,NCI-H1666,0.694
17,NCI-H596,0.722

row,Cell Line,relative viability
1,LK-2,0.878
2,NCI-H2087,0.635
3,SK-MES-1,0.66
4,H3255,0.498
5,COR-L23,0.279
6,COR-L 105,0.527
7,IA-LM,0.748
8,HCC-44,0.983
9,A549,0.359
10,NCI-H522,0.578
11,SW 900,0.852
12,NCI-H1299,0.985
13,CAL-12T,0.681
14,NCI-H2228,0.744
15,NCI-H1792,0.249
16,ABC-1,0.59

# Same assay, conditions: first compound 0.3162 µM
row,Cell Line,relative viability
1,NCI-H2342,0.489
2,NCI-H727,0.68
3,NCI-H1650,0.703
4,EBC-1,0.679
5,NCI-H1703,0.216
6,NCI-H1993,1.11
7,SW 1573,0.249
8,NCI-H838,0.229
9,LCLC-103H,0.805
10,NCI-H520,0.249
11,NCI-H2126,0.779
12,EMC-BAC-2,0.374
13,NCI-H2085,0.711
14,Calu-6,0.495
15,HCC-366,0.117
16,NCI-H1666,0.673
17,NCI-H596,0.777

row,Cell Line,relative viability
1,LK-2,0.791
2,NCI-H2087,0.608
3,NCI-H1648,0.767
4,SK-MES-1,0.473
5,H3255,0.533
6,COR-L23,0.255
7,COR-L 105,0.616
8,IA-LM,0.881
9,HCC-44,1
10,A549,0.216
11,NCI-H522,0.682
12,SW 900,0.575
13,NCI-H1299,0.924
14,CAL-12T,0.633
15,NCI-H2228,0.556
16,NCI-H1792,0.146
17,ABC-1,0.928
